Reference: patent US20100197604A1, “USE OF PEPTIDE AS A THERAPEUTIC AGENT” (priority 2007, published 2010)

Tested on: drug-resistant Mycobacterium tuberculosis
Conditions: drug-resistant Mycobacterium tuberculosis growth; peptide 10 micrograms per ml; seven days

Q: Which “% inhibition” value does the source give for `CC[C@H](C)[C@H](NC(=O)[C@H](Cc1ccc(O)cc1)NC(=O)[C@@H](NC(=O)[C@H](CCCNC(=N)N)NC(=O)[C@@H](N)CC(=O)O)C(C)C)C(=O)N[C@@H](Cc1c[nH]cn1)C(=O)N1CCC[C@H]1C(=O)N[C@@H](Cc1ccccc1)C(=O)O` [Angiotensin II] here?
A: 0.0%
